Consider five molecules from PubChem BioAssay AID1259407 (Chemical Carcinogenesis Research Information System (CCRIS), 2018).

Active and inactive are the calls of the source. No rule for the calls is given here.

The data set concerns CCRIS mutagenicity, Ames/micronucleus/aberration tests. As to the kind of experiment: CCRIS mutagenicity studies.
The mark [1] stands for this setting: Test System: AMES SALMONELLA TYPHIMURIUM, Strain/Indicator: TA98, Metabolic Activation: NONE, Method: PREINCUBATION
The mark [2] stands for this setting: Test System: AMES SALMONELLA TYPHIMURIUM, Strain/Indicator: TA98, Metabolic Activation: NONE, Method: STANDARD PLATE.
Setting [3] is: Test System: AMES SALMONELLA TYPHIMURIUM, Strain/Indicator: TA100, Metabolic Activation: NONE, Method: PREINCUBATION
The mark [4] stands for this setting: Test System: AMES SALMONELLA TYPHIMURIUM, Strain/Indicator: TA100, Metabolic Activation: NONE, Method: STANDARD PLATE.

For `Oc1ccc(O)cc1`, the mutagenic call runs as follows: (End Point: IN VITRO CHROMOSOMAL ABERRATIONS, Test System: CHINESE HAMSTER OVARY CELLS, Metabolic Activation: NONE) “inactive; negative”; (End Point: IN VITRO CHROMOSOMAL ABERRATIONS, Test System: CHINESE HAMSTER OVARY CELLS, Metabolic Activation: RAT, LIVER, S-9, AROCLOR 1254) “active; positive”; (End Point: IN VITRO CHROMOSOMAL ABERRATIONS, Test System: CHINESE HAMSTER V79 CELLS, Metabolic Activation: NONE) “active; positive; effective at higher doses at ph 7.4”; (End Point: IN VITRO CHROMOSOMAL ABERRATIONS, Test System: CHL/IU CELLS, Metabolic Activation: NONE) “active; positive (structural changes)”; (End Point: IN VITRO CHROMOSOMAL ABERRATIONS, Test System: HUMAN (MALE) PERIPHERAL BLOOD LYMPHOCYTES, Metabolic Activation: NONE) “inactive; negative”; (End Point: IN VITRO CHROMOSOMAL ABERRATIONS, Test System: HUMAN (MALE) PERIPHERAL BLOOD LYMPHOCYTES, Metabolic Activation: RAT, LIVER, S-9, AROCLOR 1254) “inactive; negative”. Further, the mutagenic call by setting is: (End Point: IN VITRO CHROMOSOMAL ABERRATIONS, Test System: HUMAN PERIPHERAL LYMPHOCYTES, Metabolic Activation: NONE) “active; positive (ploidy)”; (End Point: IN VITRO CHROMOSOMAL ABERRATIONS, Test System: HUMAN PERIPHERAL LYMPHOCYTES, Metabolic Activation: NONE, Method: FISH) “active; positive (ploidy); greater effects on certain chromosomes”; (End Point: IN VITRO CHROMOSOMAL ABERRATIONS, Test System: HUMAN PERIPHERAL LYMPHOCYTES, Metabolic Activation: NONE, Method: FISH - DUAL COLOR PROBES) “active; positive (structural and ploidy changes)”; (End Point: IN VITRO CHROMOSOMAL ABERRATIONS, Test System: HUMAN PERIPHERAL LYMPHOCYTES, Metabolic Activation: NONE, Method: FISH - SINGLE COLOR) “active; positive (ploidy)”; (End Point: IN VITRO CHROMOSOMAL ABERRATIONS, Test System: HUMAN PERIPHERAL LYMPHOCYTES, Metabolic Activation: NONE, Method: FISH- DUAL COLOR PROBES) “inactive; negative for translocations”; (End Point: IN VITRO CHROMOSOMAL ABERRATIONS, Test System: V79, Metabolic Activation: RAT, LIVER, S-9, AROCLOR 1254) “active; positive; effective at higher doses at ph 7.4”. Besides, the mutagenic call was “active; positive” (End Point: IN VITRO MICRONUCLEUS, Test System: CHL/IU CELLS, Metabolic Activation: NONE); “active; positive” (End Point: IN VITRO MICRONUCLEUS, Test System: HAMSTER V79 CELLS, Metabolic Activation: NONE); “active; positive; individuals with gstm1 null genotype more affected than those with gst” (End Point: IN VITRO MICRONUCLEUS, Test System: HUMAN LYMPHOCYTES, Metabolic Activation: NONE); “active; positive (structural changes and ploidy). toxic at 0.12 mg/ml” (End Point: In vitro chromosomal aberrations, Test System: Chinese hamster lung (CHL/IU) cells, Metabolic Activation: Rat, Liver, S9, Phenobarbital and 5,6-benzoflavone); “inactive; negative” (Test System: AMES SALMONELLA TYPHIMURIUM, Strain/Indicator: TA97, Metabolic Activation: NONE, Method: STANDARD PLATE); “inactive; negative” (Test System: AMES SALMONELLA TYPHIMURIUM, Strain/Indicator: TA97, Metabolic Activation: RAT, LIVER, S-9, PCB, Method: STANDARD PLATE). Moreover, the mutagenic call by setting is: (Test System: AMES SALMONELLA TYPHIMURIUM, Strain/Indicator: TA97, Metabolic Activation: RAT, LIVER, S-9, PHENOBARBITAL, Method: PREINCUBATION) “active; positive”; under setting [1], “active; positive”; under setting [2], “inactive; negative”; (Test System: AMES SALMONELLA TYPHIMURIUM, Strain/Indicator: TA98, Metabolic Activation: RAT, LIVER, S-9, PCB, Method: STANDARD PLATE) “inactive; negative”; (Test System: AMES SALMONELLA TYPHIMURIUM, Strain/Indicator: TA98, Metabolic Activation: RAT, LIVER, S-9, PHENOBARBITAL, Method: PREINCUBATION) “active; positive”; under setting [3], “active; positive”. Moreover, the mutagenic call by setting is: under setting [4], “inactive; negative”; (Test System: AMES SALMONELLA TYPHIMURIUM, Strain/Indicator: TA100, Metabolic Activation: RAT, LIVER, S-9, PCB, Method: STANDARD PLATE) “inactive; negative”; (Test System: AMES SALMONELLA TYPHIMURIUM, Strain/Indicator: TA100, Metabolic Activation: RAT, LIVER, S-9, PHENOBARBITAL, Method: PREINCUBATION) “active; positive”; (Test System: AMES SALMONELLA TYPHIMURIUM, Strain/Indicator: TA102, Metabolic Activation: NONE, Method: STANDARD PLATE) “active; positive”; (Test System: AMES SALMONELLA TYPHIMURIUM, Strain/Indicator: TA104, Metabolic Activation: NONE, Method: PREINCUBATION) “active; positive”; (Test System: UDS SHE CELLS, Strain/Indicator: THY INCORP, Metabolic Activation: NONE, Method: LIQUID SCINTILLATION COUNTING) “active; positive”.

Consider `CC(=O)OC1Cc2c(C)ccc3cc4c(ccc5ccccc54)c1c23` (stereo not drawn), for which the mutagenic call runs as follows: under setting [2], “active; positive”; under setting [4], “active; positive”.

For `[Cl][Sb]([Cl])([Cl])([Cl])[Cl]`, the mutagenic call under setting [1] was “inactive; negative”; the mutagenic call (Test System: AMES SALMONELLA TYPHIMURIUM, Strain/Indicator: TA98, Metabolic Activation: RAT, LIVER, S-9 (10%), Method: PREINCUBATION) is “inactive; negative”; the mutagenic call under setting [3] is “inactive; negative”; the mutagenic call (Test System: AMES SALMONELLA TYPHIMURIUM, Strain/Indicator: TA100, Metabolic Activation: RAT, LIVER, S-9 (10%), Method: PREINCUBATION) is “inactive; negative”.

As for `C=C(C)C(=O)OCC(C)(C)COC(=O)C(=C)C`, the mutagenic call runs as follows: under setting [2], “inactive; negative”; (Test System: AMES SALMONELLA TYPHIMURIUM, Strain/Indicator: TA98, Metabolic Activation: RAT, LIVER, S-9, AROCLOR 1254, Method: STANDARD PLATE) “inactive; negative”; (Test System: AMES SALMONELLA TYPHIMURIUM, Strain/Indicator: TA98, Metabolic Activation: RAT, LIVER, S-9, SODIUM PHENOBARBITAL, Method: STANDARD PLATE) “inactive; negative”; under setting [4], “inactive; negative”; (Test System: AMES SALMONELLA TYPHIMURIUM, Strain/Indicator: TA100, Metabolic Activation: RAT, LIVER, S-9, AROCLOR 1254, Method: STANDARD PLATE) “inactive; negative”; (Test System: AMES SALMONELLA TYPHIMURIUM, Strain/Indicator: TA100, Metabolic Activation: RAT, LIVER, S-9, SODIUM PHENOBARBITAL, Method: STANDARD PLATE) “inactive; negative”. In addition, the mutagenic call runs as follows: (Test System: AMES SALMONELLA TYPHIMURIUM, Strain/Indicator: TA1535, Metabolic Activation: NONE, Method: STANDARD PLATE) “inactive; negative”; (Test System: AMES SALMONELLA TYPHIMURIUM, Strain/Indicator: TA1535, Metabolic Activation: RAT, LIVER, S-9, AROCLOR 1254, Method: STANDARD PLATE) “inactive; negative”; (Test System: AMES SALMONELLA TYPHIMURIUM, Strain/Indicator: TA1535, Metabolic Activation: RAT, LIVER, S-9, SODIUM PHENOBARBITAL, Method: STANDARD PLATE) “inactive; negative”; (Test System: AMES SALMONELLA TYPHIMURIUM, Strain/Indicator: TA1537, Metabolic Activation: NONE, Method: STANDARD PLATE) “inactive; negative”; (Test System: AMES SALMONELLA TYPHIMURIUM, Strain/Indicator: TA1537, Metabolic Activation: RAT, LIVER, S-9, AROCLOR 1254, Method: STANDARD PLATE) “inactive; negative”; (Test System: AMES SALMONELLA TYPHIMURIUM, Strain/Indicator: TA1537, Metabolic Activation: RAT, LIVER, S-9, SODIUM PHENOBARBITAL, Method: STANDARD PLATE) “inactive; negative”. Further, the mutagenic call by setting is: (Test System: AMES SALMONELLA TYPHIMURIUM, Strain/Indicator: TA1538, Metabolic Activation: NONE, Method: STANDARD PLATE) “inactive; negative”; (Test System: AMES SALMONELLA TYPHIMURIUM, Strain/Indicator: TA1538, Metabolic Activation: RAT, LIVER, S-9, AROCLOR 1254, Method: STANDARD PLATE) “inactive; negative”; (Test System: AMES SALMONELLA TYPHIMURIUM, Strain/Indicator: TA1538, Metabolic Activation: RAT, LIVER, S-9, SODIUM PHENOBARBITAL, Method: STANDARD PLATE) “inactive; negative”.

Regarding `O=CNc1ccc(Oc2ccccc2)cc1`, the mutagenic call reads like this: under setting [4], “inactive; negative”; (Test System: AMES SALMONELLA TYPHIMURIUM, Strain/Indicator: TA100, Metabolic Activation: RAT, LIVER, S-9, KANECLOR 500, Method: STANDARD PLATE) “active; positive”.
